# Measured values from US10131679B2, “Substituted dihydropyrrolopyrazole compound” (UBE INDUSTRIES, LTD., priority 2014, dated 2018).
# Tested on: IL-17 production in human PBMC-derived T cells
# Assay: Human PBMC various-stimulant cocktail-induced IL-17 production inhibition test
# Type: cell-based
# Details: 120 h; human T-cell suspension from PBMC, cocktail of various stimulants, incubation for 5 days, ELISA
# Text: Human PBMC Various-Stimulant Cocktail-Induced IL-17 Production Inhibition Test
# PBMC was separated and collected by using Ficoll-Paque (17-1440-02 manufactured by GE Healthcare Japan Corp.) from blood collected from healthy human adult in the presence of heparin. The collected PBMC was further cultured in a flask for a certain time, and then, non-adherent cells in the supernatant were collected and used as a T-cell suspension. RPMI1640 medium (manufactured by GIBCO/Thermo Fisher Scientific, Inc., REF. 11875), which is containing 10% FBS (manufactured by GIBCO/Thermo Fisher Scientific, Inc., REF. 10082), 1% penicillin/streptomycin/amphotericin B (manufactured by GIBCO/Thermo Fisher Scientific, Inc., REF. 15240-096), 1% nonessential amino acids (manufactured by GIBCO/Thermo Fisher Scientific, Inc., REF. 11140-050), and 1% pyruvic acid (manufactured by GIBCO/Thermo Fisher Scientific, Inc., REF. 11140) and containing a test compound dissolved in DMSO, 2 μg/mL (final concentration) CD28 antibody (manufactured by BioLegend, Inc., Cat. No. 302914), 10 μg/mL (final concentration) human IFN-γ antibody (manufactured by BD Biosciences, Cat. No. 554698), 10 μg/mL (final concentration) human IL-4 antibody (manufactured by BD Biosciences, Cat. No. 554481), 20 ng/mL (final concentration) human IL-6 (manufactured by BioLegend, Inc., Cat. No. 570802), 10 ng/mL (final concentration) human IL-23 (manufactured by BioLegend, Inc., Cat. No. 574102), 10 ng/mL (final concentration) human IL-1(3 (manufactured by PeproTech Inc., Cat. No. 200-01B), and 10 ng/mL (final concentration) human TGF-13 (manufactured by BioLegend, Inc., Cat. No. 580702), was added at 100 μL/well to T cell Activation Plate Anti-Human CD3 96-well plate (manufactured by Corning Inc., REF. 354725). Subsequently, 100 μL of a T-cell suspension adjusted to 2×10^5 cells/mL was added to each well (final DMSO concentration: 0.1%). Only DMSO was added to wells in the absence of the test compound. After incubation for 5 days in a carbon dioxide incubator, the culture supernatant was collected and stored at −20° C. until IL-17 content measurement.
# In the IL-17 content measurement in the culture supernatant, a sandwich ELISA kit (Quantikine Human IL-17, manufactured by R&D Systems, Inc.) was used. The IL-17 content of each sample was calculated from the calibration curve of Standard IL-17 included in the kit. When the amount of IL-17 produced by the cocktail of various stimulants in the case of the addition of only DMSO was defined as 100%, the rate of inhibition of IL-17 production at each concentration of the test compound was calculated. The concentration of the test compound necessary for inhibiting 50% of IL-17 production (IC50 value) was calculated from the concentration of the added test compound and the rate of inhibition of IL-17 production by the test compound by using EXSUS (version 8.0.0 or version 8.0.1, manufactured by CAC Exicare Corp.).
row,SMILES,IC50 [nM]
1,"CC(C)(CO)C(NC(=O)N1Cc2c(NC(=O)C3([Si](C)(C)C)CCC3)n[nH]c2C1(C)C)c1ccccc1 (single isomer, unassigned; (-)) [IV-673, (−)-N-(3-Hydroxy-2,2-dimethyl-1-phenylpropyl)-6,6-dimethyl-3-[1-(trimethylsilyl)cyclobutanecarboxamido]-4,6-dihydropyrrolo[3,4-c]pyrazole-5(1H)-carboxamide]",≤ 50
2,"CC1(C)c2[nH]nc(NC(=O)C3([Si](C)(C)C)CCC3)c2CN1C(=O)NC(c1ccccc1)C1(CO)CCC1 (stereo not shown) [IV-718, N-{[1-(Hydroxymethyl)cyclobutyl](phenyl)methyl}-6,6-dimethyl-3-[1-(trimethylsilyl)cyclobutanecarboxamido]-4,6-dihydropyrrolo[3,4-c]pyrazole-5(1H)-carboxamide]",≤ 50
3,"CC1(C)c2[nH]nc(NC(=O)C3([Si](C)(C)C)CCC3)c2CN1C(=O)N[C@H](CC1(O)CC1)c1ccccc1 [IV-743, (R)—N-[2-(1-Hydroxycyclopropyl)-1-phenylethyl]-6,6-dimethyl-3-[1-(trimethylsilyl)cyclobutanecarboxamido]-4,6-dihydropyrrolo[3,4-c]pyrazole-5(1H)-carboxamide]",≤ 50
4,"CC(C)(O)C[C@@H](NC(=O)N1Cc2c(NC(=O)C3([Si](C)(C)C)CCC3)n[nH]c2C1(C)C)c1cccc(F)c1 [IV-911, (R)—N-[1-(3-Fluorophenyl)-3-hydroxy-3-methylbutyl]-6,6-dimethyl-3-[1-(trimethylsilyl)cyclobutanecarboxamido]-4,6-dihydropyrrolo[3,4-c]pyrazole-5(1H)-carboxamide]",≤ 50
5,"CC(C)(CO)C(NC(=O)N1Cc2c(NC(=O)C3([Si](C)(C)C)CCC3)n[nH]c2C1(C)C)c1cccc(F)c1 (stereo not shown) [IV-918, N-[1-(3-Fluorophenyl)-3-hydroxy-2,2-dimethylpropyl]-6,6-dimethyl-3-[1-(trimethylsilyl)cyclobutanecarboxamido]-4,6-dihydropyrrolo[3,4-c]pyrazole-5(1H)-carboxamide]",≤ 50
6,"CC(C)(O)C[C@@H](NC(=O)N1Cc2c(NC(=O)C3([Si](C)(C)C)CCC3)n[nH]c2C1(C)C)c1ccc(F)cc1 [IV-939, (R)—N-[1-(4-Fluorophenyl)-3-hydroxy-3-methylbutyl]-6,6-dimethyl-3-[1-(trimethylsilyl)cyclobutanecarboxamido]-4,6-dihydropyrrolo[3,4-c]pyrazole-5(1H)-carboxamide]",≤ 50
7,"CC(C)(CO)C(NC(=O)N1Cc2c(NC(=O)C3([Si](C)(C)C)CCC3)n[nH]c2C1(C)C)c1ccc(F)cc1 (stereo not shown) [IV-946, N-[1-(4-Fluorophenyl)-3-hydroxy-2,2-dimethylpropyl]-6,6-dimethyl-3-[1-(trimethylsilyl)cyclobutanecarboxamido]-4,6-dihydropyrrolo[3,4-c]pyrazole-5(1H)-carboxamide]",≤ 50
8,"CC1(C)c2[nH]nc(NC(=O)C3([Si](C)(C)C)CCC3)c2CN1C(=O)[C@H](OC(F)(F)F)c1ccccc1 [IV-1184, (R)—N-{6,6-Dimethyl-5-[2-phenyl-2-(trifluoromethoxy)acetyl]-1,4,5,6-tetrahydropyrrolo[3,4-c]pyrazol-3-yl}-1-(trimethylsilyl)cyclobutanecarboxamide]",≤ 50
9,"CCCO[C@@H](C(=O)N1Cc2c(NC(=O)C3([Si](C)(C)C)CCC3)n[nH]c2C1(C)C)c1ccccc1 [IV-1196, (R)—N-[6,6-Dimethyl-5-(2-phenyl-2-propoxyacetyl)-1,4,5,6-tetrahydropyrrolo[3,4-c]pyrazol-3-yl]-1-(trimethylsilyl)cyclobutanecarboxamide]",≤ 50
10,"CC(C)O[C@@H](C(=O)N1Cc2c(NC(=O)C3([Si](C)(C)C)CCC3)n[nH]c2C1(C)C)c1ccccc1 [IV-1204, (R)—N-[5-(2-Isopropoxy-2-phenylacetyl)-6,6-dimethyl-1,4,5,6-tetrahydropyrrolo[3,4-c]pyrazol-3-yl]-1-(trimethylsilyl)cyclobutanecarboxamide]",≤ 50
